Reference: PubChem BioAssay AID256 (DTP/NCI, 2004)
Several values for one entry are separate records, joined by “and”; a condition that tells them apart may be missing. Equal values may be shown once. Toxic doses and inconclusive results are not listed.

System: CD2F1 mice, L1210 leukemia ip, survival T/C
Test: NCI In Vivo Anticancer Drug Screen. Data for tumor model L1210 Leukemia (intraperitoneal) in CD2F1 (CDF1) mice
Conditions: higher = longer survival
In short: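 Vehicle-treated tumor-bearing mice served as controls (C) for compound-treated mice (T). Reported figure is T divided by C.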

[1] = endpoint: mean survival time, dose: 12.5 mg/kg/injection, schedule: Q01DX009 (ip), vehicle: saline with Tween-80
[2] = endpoint: mean survival time, dose: 25.0 mg/kg/injection, schedule: Q01DX009 (ip), vehicle: saline with Tween-80
[3] = endpoint: mean survival time, dose: 100.0 mg/kg/injection, schedule: Q04DX003 (ip), vehicle: saline with Tween-80
[4] = endpoint: mean survival time, dose: 200.0 mg/kg/injection, schedule: Q04DX003 (ip), vehicle: saline with Tween-80
[5] = endpoint: mean survival time, dose: 400.0 mg/kg/injection, schedule: Q04DX003 (ip), vehicle: saline with Tween-80

NC(=O)c1cn(C2OC(CO)C(O)C2O)c2ncnc(N)c12 (centres undefined)
T/C (endpoint: mean survival time, dose: 0.06 mg/kg/injection, schedule: Q01DX009 (ip), vehicle: acid diluted with saline): 117 % of control | T/C (endpoint: mean survival time, dose: 0.06 mg/kg/injection, schedule: Q01DX009 (ip), vehicle: saline): 108 % of control | T/C (endpoint: mean survival time, dose: 0.08 mg/kg/injection, schedule: Q## X008 (ip), vehicle: carboxymethylcellulose (CMC)): 117 % of control | T/C (endpoint: mean survival time, dose: 0.13 mg/kg/injection, schedule: Q01DX009 (ip), vehicle: saline): 120 % of control and 121 % of control | T/C (endpoint: mean survival time, dose: 0.13 mg/kg/injection, schedule: Q03HX008 (ip), vehicle: saline): 124 % of control | T/C (endpoint: mean survival time, dose: 0.13 mg/kg/injection, schedule: Q03HX016 (ip), vehicle: saline): 123 % of control | T/C (endpoint: mean survival time, dose: 0.13 mg/kg/injection, schedule: Q03HX024 (ip), vehicle: saline): 119 % of control | T/C (endpoint: mean survival time, dose: 0.2 mg/kg/injection, schedule: Q01DX005 (ip), vehicle: saline): 115 % of control | T/C (endpoint: mean survival time, dose: 0.25 mg/kg/injection, schedule: Q01DX005 (ip), vehicle: saline + alcohol): 124 % of control | T/C (endpoint: mean survival time, dose: 0.31 mg/kg/injection, schedule: Q## X002 (ip), vehicle: carboxymethylcellulose (CMC)): 122 % of control | T/C (endpoint: mean survival time, dose: 0.31 mg/kg/injection, schedule: Q## X008 (ip), vehicle: carboxymethylcellulose (CMC)): 114 % of control | T/C (endpoint: mean survival time, dose: 0.5 mg/kg/injection, schedule: Q01DX009 (ip), vehicle: saline sonified): 123 % of control | T/C (endpoint: mean survival time, dose: 0.5 mg/kg/injection, schedule: Q03HX024 (ip), vehicle: saline): 95 % of control | T/C (endpoint: mean survival time, dose: 0.5 mg/kg/injection, schedule: Q04DX003 (ip), vehicle: saline): 122 % of control | T/C (endpoint: mean survival time, dose: 0.63 mg/kg/injection, schedule: Q01DX001 (ip), vehicle: carboxymethylcellulose (CMC)): 123 % of control | T/C (endpoint: mean survival time, dose: 0.63 mg/kg/injection, schedule: Q## X002 (ip), vehicle: carboxymethylcellulose (CMC)): 124 % of control | T/C (endpoint: mean survival time, dose: 0.63 mg/kg/injection, schedule: Q## X008 (ip), vehicle: carboxymethylcellulose (CMC)): 91 % of control | T/C (endpoint: mean survival time, dose: 1.0 mg/kg/injection, schedule: Q01DX001 (ip), vehicle: saline): 115 % of control and 119 % of control | T/C (endpoint: mean survival time, dose: 1.0 mg/kg/injection, schedule: Q01DX007 (ip), vehicle: saline): 119 % of control | T/C (endpoint: mean survival time, dose: 1.0 mg/kg/injection, schedule: Q01DX009 (ip), vehicle: saline sonified): 88 % of control and 95 % of control and 111 % of control | T/C (endpoint: mean survival time, dose: 1.0 mg/kg/injection, schedule: Q01DX009 (oral), vehicle: saline): 93 % of control | T/C (endpoint: mean survival time, dose: 1.0 mg/kg/injection, schedule: Q04DX003 (ip), vehicle: saline): 122 % of control | T/C (endpoint: mean survival time, dose: 1.0 mg/kg/injection, schedule: Q08DX002 (ip), vehicle: saline): 117 % of control | T/C (endpoint: mean survival time, dose: 1.25 mg/kg/injection, schedule: Q01DX001 (ip), vehicle: carboxymethylcellulose (CMC)): 121 % of control | T/C (endpoint: mean survival time, dose: 1.25 mg/kg/injection, schedule: Q## X002 (ip), vehicle: carboxymethylcellulose (CMC)): 114 % of control | T/C (endpoint: mean survival time, dose: 1.5 mg/kg/injection, schedule: Q01DX009 (ip), vehicle: saline with Tween-80): 109 % of control | T/C (endpoint: mean survival time, dose: 2.0 mg/kg/injection, schedule: Q01DX001 (ip), vehicle: saline): 117 % of control and 112 % of control | T/C (endpoint: mean survival time, dose: 2.0 mg/kg/injection, schedule: Q01DX001 (oral), vehicle: saline): 107 % of control | T/C (endpoint: mean survival time, dose: 2.0 mg/kg/injection, schedule: Q01DX009 (ip), vehicle: acid diluted with saline): 111 % of control | T/C (endpoint: mean survival time, dose: 2.0 mg/kg/injection, schedule: Q01DX009 (ip), vehicle: saline sonified): 88 % of control and 93 % of control | T/C (endpoint: mean survival time, dose: 2.0 mg/kg/injection, schedule: Q01DX009 (oral), vehicle: saline): 97 % of control | T/C (endpoint: mean survival time, dose: 2.0 mg/kg/injection, schedule: Q08DX002 (ip), vehicle: saline): 119 % of control | T/C (endpoint: mean survival time, dose: 2.5 mg/kg/injection, schedule: Q01DX001 (ip), vehicle: carboxymethylcellulose (CMC)): 178 % of control | T/C (endpoint: mean survival time, dose: 4.0 mg/kg/injection, schedule: Q01DX001 (ip), vehicle: saline): 121 % of control and 124 % of control | T/C (endpoint: mean survival time, dose: 4.0 mg/kg/injection, schedule: Q01DX001 (oral), vehicle: saline): 112 % of control | T/C (endpoint: mean survival time, dose: 4.0 mg/kg/injection, schedule: Q01DX005 (ip), vehicle: saline + alcohol): 93 % of control | T/C (endpoint: mean survival time, dose: 4.0 mg/kg/injection, schedule: Q01DX009 (oral), vehicle: saline): 98 % of control | T/C (endpoint: mean survival time, dose: 4.0 mg/kg/injection, schedule: Q04DX003 (ip), vehicle: saline): 101 % of control | T/C (endpoint: mean survival time, dose: 4.0 mg/kg/injection, schedule: Q08DX002 (ip), vehicle: saline): 120 % of control | T/C (endpoint: mean survival time, dose: 8.0 mg/kg/injection, schedule: Q01DX001 (ip), vehicle: saline): 113 % of control | T/C (endpoint: mean survival time, dose: 8.0 mg/kg/injection, schedule: Q01DX001 (oral), vehicle: saline): 101 % of control | T/C (endpoint: mean survival time, dose: 8.0 mg/kg/injection, schedule: Q08DX002 (ip), vehicle: saline): 88 % of control | T/C (endpoint: mean survival time, dose: 16.0 mg/kg/injection, schedule: Q01DX001 (oral), vehicle: saline): 107 % of control | T/C (endpoint: mean survival time, dose: 125.0 micrograms/kg/injection, schedule: Q01DX006 (iv), vehicle: saline): 106 % of control | T/C (endpoint: mean survival time, dose: 125.0 micrograms/kg/injection, schedule: Q01DX Z (im), vehicle: saline): 100 % of control | T/C (endpoint: mean survival time, dose: 250.0 micrograms/kg/injection, schedule: Q01DX006 (iv), vehicle: saline): 101 % of control | T/C (endpoint: mean survival time, dose: 250.0 micrograms/kg/injection, schedule: Q01DX Z (im), vehicle: saline): 101 % of control | T/C (endpoint: mean survival time, dose: 500.0 micrograms/kg/injection, schedule: Q01DX006 (iv), vehicle: saline): 106 % of control | T/C (endpoint: mean survival time, dose: 500.0 micrograms/kg/injection, schedule: Q01DX Z (im), vehicle: saline): 107 % of control | T/C (endpoint: mean survival time, dose: 1000.0 micrograms/kg/injection, schedule: Q01DX006 (iv), vehicle: saline): 109 % of control | T/C (endpoint: mean survival time, dose: 1000.0 micrograms/kg/injection, schedule: Q01DX Z (im), vehicle: saline): 103 % of control | T/C (endpoint: median survival time, dose: 2.0 mg/kg/injection, schedule: Q01DX009 (ip), vehicle: saline): 112 % of control

BrCC1OCCCO1
T/C [1]: 105 % of control | T/C [2]: 111 % of control | T/C (endpoint: mean survival time, dose: 50.0 mg/kg/injection, schedule: Q01DX009 (ip), vehicle: saline with Tween-80): 115 % of control

CCCCS.[Hg]
T/C (endpoint: mean survival time, dose: 6.25 mg/kg/injection, schedule: Q01DX009 (ip), vehicle: saline with Tween-80): 95 % of control | T/C [1]: 96 % of control | T/C [2]: 95 % of control

CC(C)(c1ccc(O)cc1)c1ccc(O)cc1
T/C (endpoint: mean survival time, dose: 100.0 mg/kg/injection, schedule: Q01DX009 (ip), vehicle: saline with Tween-80): 102 % of control | T/C (endpoint: mean survival time, dose: 200.0 mg/kg/injection, schedule: Q01DX009 (ip), vehicle: saline with Tween-80): 104 % of control | T/C (endpoint: mean survival time, dose: 400.0 mg/kg/injection, schedule: Q01DX009 (ip), vehicle: saline with Tween-80): 100 % of control

CC(C)(C)C(=O)CC(=O)C(C)(C)C.CC(C)(C)C(=O)CC(=O)C(C)(C)C.[Cu]
T/C (endpoint: mean survival time, dose: 9.5 mg/kg/injection, schedule: Q01DX009 (ip), vehicle: saline with Tween-80): 98 % of control | T/C (endpoint: mean survival time, dose: 9.5 mg/kg/injection, schedule: Q04DX003 (ip), vehicle: saline with Tween-80): 90 % of control | T/C (endpoint: mean survival time, dose: 19.0 mg/kg/injection, schedule: Q01DX009 (ip), vehicle: saline with Tween-80): 102 % of control | T/C (endpoint: mean survival time, dose: 19.0 mg/kg/injection, schedule: Q04DX003 (ip), vehicle: saline with Tween-80): 90 % of control | T/C (endpoint: mean survival time, dose: 38.0 mg/kg/injection, schedule: Q04DX003 (ip), vehicle: saline with Tween-80): 91 % of control

CCOC(=O)CCCCCSc1n[nH]c(=O)[nH]c1=O
T/C (endpoint: mean survival time, dose: 12.5 mg/kg/injection, schedule: Q01DX005 (ip), vehicle: distilled water + Tween-80): 102 % of control | T/C (endpoint: mean survival time, dose: 25.0 mg/kg/injection, schedule: Q01DX005 (ip), vehicle: distilled water + Tween-80): 103 % of control | T/C (endpoint: mean survival time, dose: 50.0 mg/kg/injection, schedule: Q01DX005 (ip), vehicle: distilled water + Tween-80): 92 % of control | T/C (endpoint: mean survival time, dose: 100.0 mg/kg/injection, schedule: Q01DX005 (ip), vehicle: distilled water + Tween-80): 102 % of control | T/C (endpoint: mean survival time, dose: 200.0 mg/kg/injection, schedule: Q01DX005 (ip), vehicle: distilled water + Tween-80): 102 % of control

CN(C)C1c2cc(Cl)ccc2-c2ccc(Cl)cc21
T/C (endpoint: mean survival time, dose: 50.0 mg/kg/injection, schedule: Q01DX001 (ip), vehicle: carboxymethylcellulose (CMC)): 101 % of control | T/C (endpoint: mean survival time, dose: 100.0 mg/kg/injection, schedule: Q01DX001 (ip), vehicle: carboxymethylcellulose (CMC)): 95 % of control | T/C (endpoint: mean survival time, dose: 200.0 mg/kg/injection, schedule: Q01DX001 (ip), vehicle: carboxymethylcellulose (CMC)): 101 % of control | T/C (endpoint: mean survival time, dose: 400.0 mg/kg/injection, schedule: Q01DX001 (ip), vehicle: carboxymethylcellulose (CMC)): 98 % of control

CC(C)c1ccc2cc(C(C)C)ccc2c1
T/C [3]: 86 % of control | T/C [4]: 92 % of control | T/C [5]: 92 % of control

O=S(=O)(F)c1ccc2nc(-c3ccccc3)cc(Cl)c2c1
T/C (endpoint: mean survival time, dose: 100.0 mg/kg/injection, schedule: Q01DX009 (ip), vehicle: saline): 111 % of control | T/C (endpoint: mean survival time, dose: 200.0 mg/kg/injection, schedule: Q01DX009 (ip), vehicle: saline): 108 % of control | T/C (endpoint: mean survival time, dose: 400.0 mg/kg/injection, schedule: Q01DX009 (ip), vehicle: saline): 109 % of control

CCOc1ccc2c(O)csc2c1
T/C [3]: 90 % of control | T/C [4]: 91 % of control | T/C [5]: 91 % of control
